# According to ChEMBL document CHEMBL4602680, “Dammarane-Type Triterpenoids from the Roots of Rhus chinensis and Their Preventive Effects on Zebrafish Heart Failure and Thrombosis” (J Nat Prod, 2020):
# Activity calls are given as the source filed them. No cut-off for these calls is given here.
# Legend:
# [1] = Toxicity in zebrafish assessed as induction of adverse effect at 0.5 ug/ml in presence of ponatinib; parameters: species or system Danio rerio; details: in vivo
# [2] = Toxicity in zebrafish assessed as induction of adverse effect at 0.5 ug/ml in presence of verapamil; parameters: species or system Danio rerio; details: in vivo
# Danio rerio [3] = species: Danio rerio; assay: Prevention of heart failure in verapamil treated zebrafish AB assessed as efficacy on heart dilation preincubated for 4.5 hrs followed by verapamil treatment and measured after 30 mins; assay type: functional, organism-based
# [4] = Toxicity in zebrafish assessed as induction of adverse effect at 0.5 ug/ml; parameters: species or system Danio rerio; details: in vivo
# Danio rerio [5] = species: Danio rerio; assay: prevention of heart failure in verapamil treated zebrafish AB assessed as efficacy on heart rate at 0.5 ug/ml preincubated for 4.5 hrs followed by verapamil treatment and measured after 30 mins relative to verapamil alone; assay type: functional
# Danio rerio [6] = species: Danio rerio; assay: Prevention of heart failure in verapamil treated zebrafish AB assessed as efficacy on heart dilation at 0.5 ug/ml preincubated for 4.5 hrs followed by verapamil treatment and measured after 30 mins relative to verapamil alone; assay type: functional
# Danio rerio [7] = species: Danio rerio; assay: prevention of heart failure in verapamil treated zebrafish AB assessed as efficacy on venous congestion at 0.5 ug/ml preincubated for 4.5 hrs followed by verapamil treatment and measured after 30 mins relative to verapamil alone; assay type: functional
# Danio rerio [8] = species: Danio rerio; assay: Antithrombotic activity in ponatinib treated zebrafish AB assessed as preventive efficacy on thrombosis at 0.5 ug/ml incubated for 18 hrs by O-dianisidine staining based assay relative to ponatinib alone; assay type: functional
# Danio rerio [9] = species: Danio rerio; assay: prevention of heart failure in verapamil treated zebrafish AB assessed as efficacy on cardiac output at 0.5 ug/ml preincubated for 4.5 hrs followed by verapamil treatment and measured after 30 mins relative to verapamil alone; assay type: functional
# Danio rerio [10] = species: Danio rerio; assay: prevention of heart failure in verapamil treated zebrafish AB assessed as efficacy on blood flow velocity at 0.5 ug/ml preincubated for 4.5 hrs followed by verapamil treatment and measured after 30 mins relative to verapamil alone; assay type: functional
# [11] = Toxicity in zebrafish assessed as effect on blood flow at 0.5 ug/ml in presence of ponatinib; parameters: species or system Danio rerio; details: in vivo
# [12] = Toxicity in zebrafish assessed as effect on blood flow at 0.5 ug/ml in presence of verapamil; parameters: species or system Danio rerio; details: in vivo
# Danio rerio [13] = species: Danio rerio; assay: Antithrombotic activity in ponatinib treated zebrafish AB assessed as preventive efficacy on thrombosis at 45 ug/ml incubated for 18 hrs by O-dianisidine staining based assay relative to ponatinib alone; assay type: functional
# Danio rerio [14] = species: Danio rerio; assay: prevention of heart failure in verapamil treated zebrafish AB assessed as efficacy on venous congestion at 10 ug/ml preincubated for 4.5 hrs followed by verapamil treatment and measured after 30 mins relative to verapamil alone; assay type: functional
# Danio rerio [15] = species: Danio rerio; assay: prevention of heart failure in verapamil treated zebrafish AB assessed as efficacy on blood flow velocity at 10 ug/ml preincubated for 4.5 hrs followed by verapamil treatment and measured after 30 mins relative to verapamil alone; assay type: functional
# Danio rerio [16] = species: Danio rerio; assay: Prevention of heart failure in verapamil treated zebrafish AB assessed as efficacy on heart dilation at 10 ug/ml preincubated for 4.5 hrs followed by verapamil treatment and measured after 30 mins relative to verapamil alone; assay type: functional
# Danio rerio [17] = species: Danio rerio; assay: prevention of heart failure in verapamil treated zebrafish AB assessed as efficacy on cardiac output at 10 ug/ml preincubated for 4.5 hrs followed by verapamil treatment and measured after 30 mins relative to verapamil alone; assay type: functional
# Danio rerio [18] = species: Danio rerio; assay: prevention of heart failure in verapamil treated zebrafish AB assessed as efficacy on blood flow velocity at 0.8 ug/ml preincubated for 4.5 hrs followed by verapamil treatment and measured after 30 mins relative to verapamil alone; assay type: functional
# Danio rerio [19] = species: Danio rerio; assay: prevention of heart failure in verapamil treated zebrafish AB assessed as efficacy on heart rate at 0.8 ug/ml preincubated for 4.5 hrs followed by verapamil treatment and measured after 30 mins relative to verapamil alone; assay type: functional
# Danio rerio [20] = species: Danio rerio; assay: prevention of heart failure in verapamil treated zebrafish AB assessed as efficacy on cardiac output at 0.8 ug/ml preincubated for 4.5 hrs followed by verapamil treatment and measured after 30 mins relative to verapamil alone; assay type: functional
# Danio rerio [21] = species: Danio rerio; assay: prevention of heart failure in verapamil treated zebrafish AB assessed as efficacy on venous congestion at 0.8 ug/ml preincubated for 4.5 hrs followed by verapamil treatment and measured after 30 mins relative to verapamil alone; assay type: functional
# Danio rerio [22] = species: Danio rerio; assay: Prevention of heart failure in verapamil treated zebrafish AB assessed as efficacy on heart dilation at 0.8 ug/ml preincubated for 4.5 hrs followed by verapamil treatment and measured after 30 mins relative to verapamil alone; assay type: functional
SMILES,Activity [1],Activity [2],Activity [4],Activity (Danio rerio [5]),Activity (Danio rerio [6]),Activity (Danio rerio [7]),Activity (Danio rerio [8]),Activity (Danio rerio [9]),Activity (Danio rerio [10]),other results
C=C(CCC=C(CO)CO)[C@@H]1CC[C@]2(C)[C@@H]1CC[C@@H]1[C@@]3(C)CCC(=O)C(C)(C)[C@@H]3CC[C@]12C,Non-Toxic,Non-Toxic,Non-Toxic,–,–,–,–,–,–,Activity (Danio rerio [3]): inactive
C=C(CC/C=C(/C)C(=O)O)[C@@H]1CC[C@]2(C)[C@@H]1CC[C@@H]1[C@]34CC[C@@](O)(OC3)C(C)(C)[C@@H]4CC[C@]12C,Non-Toxic,Non-Toxic,Non-Toxic,77%,65%,62%,24%,72%,83%,–
C=C([C@@H]1CC=C(C)C(=O)O1)[C@@H]1CC[C@]2(C)[C@@H]1CC[C@@H]1[C@]34CC[C@@](O)(OC3)C(C)(C)[C@@H]4CC[C@]12C,–,–,Non-Toxic,–,–,–,–,–,–,Activity [11]: Toxic; Activity [12]: Toxic
COCCc1ccc(OCC(O)CNC(C)C)cc1 (configuration not stated) [METOPROLOL],–,–,–,–,34%,29%,–,35%,17%,–
C=C([C@@H]1CC=C(C)C(=O)O1)[C@@H]1CC[C@]2(C)[C@@H]1CC[C@@H]1[C@@]3(C)CCC(=O)C(C)(C)[C@@H]3CC[C@]12C,Non-Toxic,Non-Toxic,Non-Toxic,27%,55%,23%,65%,41%,67%,–
C/C(=C/CC/C(CO)=C1\CC[C@]2(C)[C@@H]1CC[C@@H]1[C@@]3(C)CCC(=O)C(C)(C)[C@@H]3CC[C@]12C)CO,Non-Toxic,Non-Toxic,Non-Toxic,–,–,–,–,–,–,Activity (Danio rerio [3]): inactive
NS(=O)(=O)c1cc2c(cc1Cl)NCNS2(=O)=O [HYDROCHLOROTHIAZIDE],–,–,–,–,56%,60%,–,53%,33%,–
CC(=O)Oc1ccccc1C(=O)O [ASPIRIN],–,–,–,–,–,–,–,–,–,Activity (Danio rerio [13]): 86%
CCCCC1=NC2(CCCC2)C(=O)N1Cc1ccc(-c2ccccc2-c2nnn[nH]2)cc1 [IRBESARTAN],–,–,–,–,30%,36%,–,25%,15%,–
CCOC(=O)[C@H](CCc1ccccc1)N[C@@H](C)C(=O)N1CCC[C@H]1C(=O)O [ENALAPRIL],–,–,–,–,–,–,–,–,–,Activity (Danio rerio [14]): 34%; Activity (Danio rerio [15]): 26%; Activity (Danio rerio [16]): 31%; Activity (Danio rerio [17]): 34%
C=C([C@@H]1CC=C(C)C(=O)O1)[C@@H]1CC[C@]2(C)[C@@H]1CC[C@@H]1[C@@]34CO[C@](O)(C[C@H]3O)C(C)(C)[C@@H]4CC[C@]12C,Non-Toxic,Non-Toxic,Non-Toxic,60%,66%,51%,68%,58%,65%,–
C[C@H]1O[C@@H](O[C@H]2[C@@H](O)C[C@H](O[C@H]3[C@@H](O)C[C@H](O[C@H]4CC[C@@]5(C)[C@H](CC[C@@H]6[C@@H]5C[C@@H](O)[C@]5(C)[C@@H](C7=CC(=O)OC7)CC[C@]65O)C4)O[C@@H]3C)O[C@@H]2C)C[C@H](O)[C@@H]1O [DIGOXIN],–,–,–,–,53%,73%,–,40%,28%,Activity (Danio rerio [18]): 38%; Activity (Danio rerio [19]): 52%; Activity (Danio rerio [20]): 41%; Activity (Danio rerio [21]): 67%; Activity (Danio rerio [22]): 68%
C=C([C@@H]1CC[C@]2(C)[C@@H]1CC[C@@H]1[C@]34CC[C@@](O)(OC3)C(C)(C)[C@@H]4CC[C@]12C)[C@@H]1OC(=O)C(C)=C[C@H]1O,Non-Toxic,Non-Toxic,Non-Toxic,54%,63%,59%,10%,64%,65%,–
C=C([C@@H]1CC=C(C)C(=O)O1)[C@@H]1CC[C@]2(C)[C@@H]1CC[C@@H]1[C@@]34CO[C@](O)([C@@H](O)C3)C(C)(C)[C@@H]4CC[C@]12C,Non-Toxic,Non-Toxic,Non-Toxic,57%,73%,31%,76%,22%,27%,–
